Experimental data from the NIST ThermoML archive (doi:10.1016/j.jct.2017.02.004).

How the values were obtained:
[1] = 100 kPa, Liquid; for speed of sound: Frequency=3 MHz, Single path-length method; for mass density: Vibrating tube method
[2] = mn = molality of the nth substance listed, in mol/kg; conditions: 100 kPa, Liquid; for speed of sound: Frequency=3 MHz, Single path-length method; for mass density: Vibrating tube method

CCCCn1cc[n+](C)c1.F[B-](F)(F)F [1-butyl-3-methylimidazolium tetrafluoroborate]
[1]
Conditions | mass density [kg/m3] | speed of sound [m/s]
288.15 K | 1209.05 | 1591
293.15 K | 1205.5 | 1578.9
298.15 K | 1201.96 | 1566.9
303.15 K | 1198.42 | 1555.1
308.15 K | 1194.87 | 1543.4

CCCCn1cc[n+](C)c1.F[B-](F)(F)F [1-butyl-3-methylimidazolium tetrafluoroborate] + [Cl-].[Li+]
[2], m2 = 0
Conditions | mass density [kg/m3] | speed of sound [m/s]
288.15 K | 1209.05 | 1591
293.15 K | 1205.5 | 1578.9
298.15 K | 1201.96 | 1566.9
303.15 K | 1198.42 | 1555.1
308.15 K | 1194.87 | 1543.4

[Cl-].[Li+] [lithium chloride] + CCCCn1cc[n+](C)c1.F[B-](F)(F)F
[2]
Conditions | mass density, 288.15 K [kg/m3] | mass density, 293.15 K [kg/m3] | mass density, 298.15 K [kg/m3] | mass density, 303.15 K [kg/m3] | mass density, 308.15 K [kg/m3] | speed of sound, 288.15 K [m/s] | speed of sound, 293.15 K [m/s] | speed of sound, 298.15 K [m/s] | speed of sound, 303.15 K [m/s] | speed of sound, 308.15 K [m/s]
m1 = 0.0999 | 1211.1 | 1207.56 | 1204.03 | 1200.53 | 1196.98 | 1595.5 | 1583.3 | 1571.2 | 1559.4 | 1547.7
m1 = 0.1499 | 1212.17 | 1208.61 | 1205.08 | 1201.61 | 1198.07 | 1597.7 | 1585.4 | 1573.3 | 1561.4 | 1549.7
m1 = 0.2 | 1213.24 | 1209.68 | 1206.14 | 1202.69 | 1199.16 | 1599.7 | 1587.3 | 1575.2 | 1563.3 | 1551.5
m1 = 0.2501 | 1214.33 | 1210.73 | 1207.22 | 1203.79 | 1200.27 | 1601.7 | 1589.2 | – | 1565.1 | 1553.2
m1 = 0.3003 | 1215.46 | 1211.88 | 1208.31 | 1204.94 | 1201.37 | 1603.5 | 1591 | 1578.7 | 1566.7 | 1554.9
m1 = 0.3498 | 1216.56 | 1212.93 | 1209.36 | 1206.04 | 1202.5 | 1605.3 | 1592.6 | 1580.3 | 1568.2 | 1556.2
